Measured values published in US20050169978A1, “Wet-micro grinding” (priority 2004, published 2005).

Experiment: AmB content by high performance liquid chromatography during grinding
Assay type: physicochemical
Conditions: ball mill, 210 min overall grinding, HPLC
Protocol: Samples were taken at a grinding time of 90 minutes, 150 minutes, and 210 minutes, and were designated as LDAB90, LDAB150, and LDAB210, respectively. All samples were stored at 2-8° C. before analyzed. The particle size ranges of the samples were measured using N4 Plus Particle Size Analyzer and the AmB content was measured using high performance liquid chromatography.

Compound: C[C@@H]1[C@H](O)[C@@H](C)/C=C/C=C/C=C/C=C/C=C/C=C/C=C/[C@H](O[C@@H]2O[C@H](C)[C@@H](O)[C@H](N)[C@@H]2O)C[C@@H]2O[C@](O)(C[C@@H](O)C[C@@H](O)[C@H](O)CC[C@@H](O)C[C@@H](O)CC(=O)O[C@H]1C)C[C@H](O)[C@H]2C(=O)O [AmB, amphotericin B]
- stability of AmB (AmB content) during grinding: remained stable during the whole period of the grinding process
